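Growth conditions: 96-well plates. Treatment: test compound, 48 hours, 5 concentrations. Analysis: linear interpolation between bracketing concentrations; unreached endpoints set to highest concentration. Definition used: TGI = concentration required for complete inhibition of growth.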
How the values were obtained:
Experiment in all cases: DTP human tumour cell line panel, 48 h
SNB-75 CNS = tested on: SNB-75 CNS
A549 NSCLC = tested on: A549 NSCLC
SR leukemia = tested on: SR leukemia
HCC-2998 colon = tested on: HCC-2998 colon
HCT-15 colon = tested on: HCT-15 colon
MDA-MB-231 breast = tested on: MDA-MB-231 breast
SK-MEL-28 melanoma = tested on: SK-MEL-28 melanoma
SF-268 CNS = tested on: SF-268 CNS
COLO 205 colon = tested on: COLO 205 colon
MCF7 breast = tested on: MCF7 breast
NCI-H460 lung = tested on: NCI-H460 lung
NCI-H226 lung = tested on: NCI-H226 lung
MDA-N = tested on: MDA-N
HOP-62 NSCLC = tested on: HOP-62 NSCLC
MDA-MB-435 = tested on: MDA-MB-435
SK-MEL-2 melanoma = tested on: SK-MEL-2 melanoma
SW-620 colon = tested on: SW-620 colon
CAKI-1 renal = tested on: CAKI-1 renal
OVCAR-3 ovarian = tested on: OVCAR-3 ovarian
MOLT-4 leukemia = tested on: MOLT-4 leukemia
CCRF-CEM leukemia = tested on: CCRF-CEM leukemia
OVCAR-4 ovarian = tested on: OVCAR-4 ovarian
ACHN renal = tested on: ACHN renal
IGROV1 ovarian = tested on: IGROV1 ovarian
SNB-19 CNS = tested on: SNB-19 CNS
EKVX NSCLC = tested on: EKVX NSCLC
SF-539 CNS = tested on: SF-539 CNS
LOX IMVI melanoma = tested on: LOX IMVI melanoma
A498 renal = tested on: A498 renal
HL-60(TB) leukemia = tested on: HL-60(TB) leukemia
SF-295 CNS = tested on: SF-295 CNS
UACC-62 melanoma = tested on: UACC-62 melanoma
HOP-92 NSCLC = tested on: HOP-92 NSCLC
DU-145 prostate = tested on: DU-145 prostate
OVCAR-5 ovarian = tested on: OVCAR-5 ovarian
M14 melanoma = tested on: M14 melanoma
NCI-H23 lung = tested on: NCI-H23 lung
UACC-257 melanoma = tested on: UACC-257 melanoma
UO-31 renal = tested on: UO-31 renal
NCI-H522 lung = tested on: NCI-H522 lung
K-562 leukemia = tested on: K-562 leukemia
KM12 colon = tested on: KM12 colon
HT29 colon = tested on: HT29 colon
SN12C renal = tested on: SN12C renal
NCI/ADR-RES ovarian = tested on: NCI/ADR-RES ovarian
OVCAR-8 ovarian = tested on: OVCAR-8 ovarian
786-0 renal = tested on: 786-0 renal
U251 CNS = tested on: U251 CNS
T-47D breast = tested on: T-47D breast
SK-MEL-5 melanoma = tested on: SK-MEL-5 melanoma
HCT-116 colon = tested on: HCT-116 colon
PC-3 prostate = tested on: PC-3 prostate
MALME-3M melanoma = tested on: MALME-3M melanoma
RXF 393 renal = tested on: RXF 393 renal
SK-OV-3 ovarian = tested on: SK-OV-3 ovarian
TK-10 renal = tested on: TK-10 renal
RPMI-8226 leukemia = tested on: RPMI-8226 leukemia

## O=[N+]([O-])c1cnc(N(CCO)CCO)s1
SNB-75 CNS
  TGI: 0.341 µM
A549 NSCLC
  TGI: > 100 µM
SR leukemia
  TGI: > 100 µM
HCC-2998 colon
  TGI: > 100 µM
HCT-15 colon
  TGI: > 100 µM
MDA-MB-231 breast
  TGI: > 100 µM
SK-MEL-28 melanoma
  TGI: > 100 µM
SF-268 CNS
  TGI: > 100 µM
COLO 205 colon
  TGI: > 100 µM
MCF7 breast
  TGI: > 100 µM
NCI-H460 lung
  TGI: > 100 µM
NCI-H226 lung
  TGI: > 100 µM
MDA-N
  TGI: > 100 µM
HOP-62 NSCLC
  TGI: > 100 µM
MDA-MB-435
  TGI: > 100 µM
SK-MEL-2 melanoma
  TGI: > 100 µM
SW-620 colon
  TGI: > 100 µM
CAKI-1 renal
  TGI: > 100 µM
OVCAR-3 ovarian
  TGI: > 100 µM
MOLT-4 leukemia
  TGI: > 100 µM
CCRF-CEM leukemia
  TGI: > 100 µM
OVCAR-4 ovarian
  TGI: > 100 µM
ACHN renal
  TGI: > 100 µM
IGROV1 ovarian
  TGI: > 100 µM
SNB-19 CNS
  TGI: > 100 µM
EKVX NSCLC
  TGI: > 100 µM
SF-539 CNS
  TGI: > 100 µM
LOX IMVI melanoma
  TGI: > 100 µM
A498 renal
  TGI: > 100 µM
HL-60(TB) leukemia
  TGI: > 100 µM
SF-295 CNS
  TGI: > 100 µM
UACC-62 melanoma
  TGI: > 100 µM
HOP-92 NSCLC
  TGI: > 100 µM
DU-145 prostate
  TGI: > 100 µM
OVCAR-5 ovarian
  TGI: > 100 µM
M14 melanoma
  TGI: > 100 µM
NCI-H23 lung
  TGI: > 100 µM
UACC-257 melanoma
  TGI: > 100 µM
UO-31 renal
  TGI: > 100 µM
NCI-H522 lung
  TGI: > 100 µM
K-562 leukemia
  TGI: > 100 µM
KM12 colon
  TGI: > 100 µM
HT29 colon
  TGI: > 100 µM
SN12C renal
  TGI: > 100 µM
NCI/ADR-RES ovarian
  TGI: > 100 µM
OVCAR-8 ovarian
  TGI: > 100 µM
786-0 renal
  TGI: > 100 µM
U251 CNS
  TGI: > 100 µM
T-47D breast
  TGI: > 100 µM
SK-MEL-5 melanoma
  TGI: > 100 µM
HCT-116 colon
  TGI: > 100 µM
PC-3 prostate
  TGI: > 100 µM
MALME-3M melanoma
  TGI: > 100 µM
RXF 393 renal
  TGI: > 100 µM
SK-OV-3 ovarian
  TGI: > 100 µM

## CC(C)(Oc1ccc(C(=O)c2ccc(Cl)cc2)cc1Cl)C(=O)N1CCN(CCO)CC1
SNB-75 CNS
  TGI: > 10 µM
A549 NSCLC
  TGI: > 10 µM
SR leukemia
  TGI: > 10 µM
HCC-2998 colon
  TGI: > 10 µM
HCT-15 colon
  TGI: > 10 µM
MDA-MB-231 breast
  TGI: > 10 µM
SK-MEL-28 melanoma
  TGI: > 10 µM
COLO 205 colon
  TGI: > 10 µM
MCF7 breast
  TGI: > 10 µM
MDA-N
  TGI: > 10 µM
HOP-62 NSCLC
  TGI: > 10 µM
SW-620 colon
  TGI: > 10 µM
CAKI-1 renal
  TGI: > 10 µM
MOLT-4 leukemia
  TGI: > 10 µM
CCRF-CEM leukemia
  TGI: > 10 µM
TK-10 renal
  TGI: > 10 µM
IGROV1 ovarian
  TGI: > 10 µM
EKVX NSCLC
  TGI: > 10 µM
LOX IMVI melanoma
  TGI: > 10 µM
HL-60(TB) leukemia
  TGI: > 10 µM
SF-295 CNS
  TGI: > 10 µM
UACC-62 melanoma
  TGI: > 10 µM
DU-145 prostate
  TGI: > 10 µM
M14 melanoma
  TGI: > 10 µM
NCI-H23 lung
  TGI: > 10 µM
UACC-257 melanoma
  TGI: > 10 µM
K-562 leukemia
  TGI: > 10 µM
KM12 colon
  TGI: > 10 µM
HT29 colon
  TGI: > 10 µM
SN12C renal
  TGI: > 10 µM
OVCAR-8 ovarian
  TGI: > 10 µM
786-0 renal
  TGI: > 10 µM
T-47D breast
  TGI: > 10 µM
SK-MEL-5 melanoma
  TGI: > 10 µM
PC-3 prostate
  TGI: > 10 µM
MALME-3M melanoma
  TGI: > 10 µM
RXF 393 renal
  TGI: > 10 µM
SK-OV-3 ovarian
  TGI: > 10 µM
RPMI-8226 leukemia
  TGI: > 10 µM

## CN(C)CCOc1ccc2[nH]c(C(=O)N3CC(CCl)c4c3cc([N+](=O)[O-])c3ccccc43)cc2c1 (configuration not stated)
SNB-75 CNS
  TGI: 3.77 µM
COLO 205 colon
  TGI: > 100 µM
NCI-H226 lung
  TGI: > 100 µM
MDA-N
  TGI: 48.5 µM
SW-620 colon
  TGI: > 100 µM
OVCAR-3 ovarian
  TGI: 3.68 µM
CCRF-CEM leukemia
  TGI: > 100 µM
LOX IMVI melanoma
  TGI: > 100 µM
A498 renal
  TGI: 24.5 µM
HL-60(TB) leukemia
  TGI: > 100 µM
DU-145 prostate
  TGI: 20.2 µM
NCI-H23 lung
  TGI: > 100 µM
UO-31 renal
  TGI: > 100 µM
K-562 leukemia
  TGI: > 100 µM
KM12 colon
  TGI: 3.2 µM
PC-3 prostate
  TGI: > 100 µM
SK-OV-3 ovarian
  TGI: 85.5 µM
RPMI-8226 leukemia
  TGI: > 100 µM
